In brackets after ≈: the same amount, converted by molar mass.
How the values were obtained:
Assay type in all cases: cell-based, human
MAPK = MAPK immune complex kinase assay
Procedure: (§1) Dox at 1 μg/ml was added 48 h prior to radiation exposure and cell harvesting with a medium change to RPMI/0.5% FBS with or without Dox for the final 24 h. This medium was replaced by RPMI/0.5% FBS 2 h prior to treatment.
(§2) Immunoprecipitation and Western analysis. For immunochemical analyses, cells frozen at −20° C. were lysed in ice-cold lysis buffer, 25 mM β-glycerophosphate, pH 7.4, 25 mM Tris, pH 7.4, 10% (v/v) glycerol, 1.5 mM EGTA, 0.5 mM EDTA, 1% Triton X-100, 1 mM Na-orthovanadate, 1 mM Na-pyrophosphate, 10 μg/ml aprotinin, 10 μg/ml leupeptin, 1 μm benzamidine, 100 μg/ml PMSF. […] Lysates were incubated with Ab at 4° C. for 3 h, the agarose-Ab immunoprecipitates were washed twice in lysis buffer, once in lysis buffer containing 0.1% Triton X-100, and once in 1× kinase buffer, 25 mM β-glycerophosphate, pH 7.4, 15 mm MgCl2. For Western blot analyses, equal amounts of cellular protein were separated by SDS-PAGE, electroblotted to nitrocellulose, probed with specific Abs against c-Jun protein and c-Jun 0phosphorylated at Ser-63, followed by chemilumescence detection. Expression of Tam 67 in MDA-TR15-EGFR-CD533 cells infected with recombinant adenovirus was determined by Western analysis using a c-Jun Ab specific for the COOH-terminus.
(§3) Immune complex kinase assays.
(§4) Aliquots of the assay mixture were placed on P81 paper and non-specific binding of [^32P]-γ-ATP removed by extensive washing in 180 mM phosphoric acid. Incorporation of ^32P into bound MBP substrate was measured by liquid scintillation spectroscopy (Beckman Instruments Inc, Schaumburg, Ill., USA).

JNK1 = JNK1 immune complex kinase assay
Procedure: as §2, §3, §4

EGFR-CD533 expression = assay: Doxycycline induction of EGFR-CD533 mRNA and protein (RNase protection, Northern, 35S-Met labeling)
Excerpt: The kinetics of EGFR-CD533 induction and its decay after Dox removal were monitored by metabolic labeling with ^35S-Met as described in the text.

c-Jun = assay: Western blot of c-Jun protein and Ser-63 phosphorylated c-Jun
Procedure: Immunoprecipitation and Western analysis. For immunochemical analyses, cells frozen at −20° C. were lysed in ice-cold lysis buffer, 25 mM β-glycerophosphate, pH 7.4, 25 mM Tris, pH 7.4, 10% (v/v) glycerol, 1.5 mM EGTA, 0.5 mM EDTA, 1% Triton X-100, 1 mM Na-orthovanadate, 1 mM Na-pyrophosphate, 10 μg/ml aprotinin, 10 μg/ml leupeptin, 1 μm benzamidine, 100 μg/ml PMSF. Insoluble material was removed by centrifugation at 14 000 g for 10 min, and the clarified protein lysates were divided equally for immunoprecipitation with antibodies against JNKI and MAPK using established techniques (Boulton et al., 1990). Lysates were incubated with Ab at 4° C. for 3 h, the agarose-Ab immunoprecipitates were washed twice in lysis buffer, once in lysis buffer containing 0.1% Triton X-100, and once in 1× kinase buffer, 25 mM β-glycerophosphate, pH 7.4, 15 mm MgCl2. For Western blot analyses, equal amounts of cellular protein were separated by SDS-PAGE, electroblotted to nitrocellulose, probed with specific Abs against c-Jun protein and c-Jun 0phosphorylated at Ser-63, followed by chemilumescence detection. Expression of Tam 67 in MDA-TR15-EGFR-CD533 cells infected with recombinant adenovirus was determined by Western analysis using a c-Jun Ab specific for the COOH-terminus.

[1] = system: MDA-TR15-EGFR-CD533 cells; assay: TUNEL assay for apoptosis
Procedure: TUNEL assay for apoptosis. Cells were placed at a density of 2×10^4 cells into dual well slides and allowed to adhere overnight in RPMI/5FCS. Cells were then exposed, prior to irradiation, for 48 h to Dox or control solute for induction of EGFR-CD533. PD98059 at a final concentration of 10 μM was added 2 h prior to irradiation at 2 Gy. Cells were infected with recombinant Ad-TAM67 for expression of Tam67 for 48 h prior to irradiation. […] Slides were stored at −20° C. until examination by fluorescence microscopy using a fluorescein filter.

[2] = system: MDA-TR15-EGFR-CD533 cells; assay: Repeated radiation exposure (5 x 2 Gy) MTT cell growth assay
Procedure: MDA-TR15-EGFR-CD533 cells were seeded in RPMI/5% FBS at 1000 or 2000 cells/well in 96-well tissue culture plates for control and radiation experiments, respectively. After cell attachment overnight, 50% of the cultures were exposed to Dox at 1 μg/ml. Within 24 h of Dox exposure, drug-exposed and control cultures were irradiated once-daily with 2 Gy for 5 consecutive days.
Growth rate analysis. For irradiation and control conditions, 1000 and 500 cells per well of 24-well plates were seeded, respectively. Cells were maintained in RPMI/5FCS without media change throughout the period of the experiment. After 24 h of seeding, 50% of the plates were treated with 10 μM PD98059 for 2 h while negative controls were exposed to equivalent DMSO concentrations of 1 μl/ml in RPMI/5FCS. This was followed by 2 Gy daily radiation exposures for 5 consecutive days; control cells were sham irradiated. […] Growth rates were quantified relative to absorbance at 540 nm on day 1.

EGFR-WT = EGFR-WT Tyr autophosphorylation, immunoprecipitation/Western blot; settings: 2 ng/ml EGF, MDA-TR15-EGFR-CD533 cells without Dox
Procedure: as §1

[3] = parental MDA-TR15 cells, Dox 48 h
[4] = MCF-TR5-EGFR-CD533 cells, 48 h Dox exposure
[5] = MDA-TR15-EGFR-CD533 cells, 48 h Dox exposure
[6] = MDA-TR15-EGFR-CD533 cells, basal activity before irradiation, after pretreatment

C[C@H]1c2cccc(O)c2C(=O)C2=C(O)[C@]3(O)C(=O)C(C(N)=O)=C(O)[C@@H](N(C)C)[C@@H]3[C@@H](O)[C@@H]21 [Dox, doxycycline]
MAPK activity (MAPK; [3]): 16000±1600 c.p.m.
JNK1 activity at time=0 (JNK1; [3]): 3500±300 c.p.m.
EGFR-CD533 induced (EGFR-CD533 expression; 1.0 μg/ml Dox, at 24 h, 35S-Met incorporation, MDA-TR15-EGFR-CD533 cells): > 90%
EC50 (EGFR-CD533 expression; Homo sapiens, MDA-TR15-EGFR-CD533 cells, 48 h exposure, 0.01-1.0 μg/ml, read-out: Dox concentration giving half maximal response of EGFR-CD533 induction): 0.1 µg/mL (≈ 0.225 µM)
increase in EGFR-CD533 mRNA levels (EGFR-CD533 expression; [4]): 5 fold
induction of the 110 kD EGFR-CD533 truncated receptor (EGFR-CD533 expression; [4]): greater than 20 fold
increase in EGFR-CD533 mRNA levels (EGFR-CD533 expression; [5]): greater than 30 fold
induction of EGFR-CD533 at the protein level (EGFR-CD533 expression; [5]): greater than 50 fold

COc1cccc(-c2cc(=O)c3ccccc3o2)c1N [PD98059]
inhibition of radiation-induced MAPK activation (MAPK; 10 μm PD98059 pretreatment, 2 Gy, MDA-TR15-EGFR-CD533 cells): > 70%
MAPK activity at time=0 (MAPK; [6]): 16900±575 c.p.m.
c-Jun protein levels relative to untreated cells (c-Jun; 10 μM PD98059 2 h): more than twofold reduction
increase in c-Jun Ser-63 phosphorylation relative to c-Jun protein level (c-Jun; 10 μM PD98059 pretreatment, 10 min after 2 Gy): 41 fold
stimulation of c-Jun phosphorylation under MEK1/2 inhibition compared to radiation alone (c-Jun; PD98059 + 2 Gy, sustained up to 60 min): fivefold greater
transient activation of JNK1 without irradiation (JNK1; 10 μM PD98059, between 5 and 25 min, no radiation): 1.35 (±0.02) fold
radiation-induced immediate JNK1 activation (JNK1; 2 Gy, early time points (within 10 min), MDA-TR15-EGFR-CD533 cells): 3.9 (±0.1) fold
JNK1 activity at time=0 (JNK1; [6]): 3100±200 c.p.m.
apoptosis rate after irradiation ([1]; TUNEL 24 h after single 2 Gy): 6.3 (±0.1) %
basal apoptosis rate ([1]; TUNEL, without irradiation): 3.7 (±0.1) %
increase in basal apoptosis rate ([1]; TUNEL, without irradiation, relative to control): ~20%
lower cell numbers on day 7 relative to irradiated control cells ([2]; 5 daily 2 Gy exposures, MTT, day 7 of growth period): 5.0 (±0.03) fold
inhibition of cell growth / decrease in cell numbers without irradiation ([2]; un-irradiated, day 7, MTT): 25%

EGF: epidermal growth factor, natural ligand of EGFR
activation of EGFR-WT Tyr phosphorylation (EGFR-WT): 9.8 fold

From patent US20050239738A1, “Genetic inhibition of epidermal growth factor receptor function and carcinoma cell radiosensitization” (priority 2000, published 2005)
